Article PMC8955197, “Polyketide Derivatives from the Endophytic Fungus Phaeosphaeria sp. LF5 Isolated from Huperzia serrata and Their Acetylcholinesterase Inhibitory Activities” (Journal of Fungi, 2022)

Target: AChE (Homo sapiens, UniProt P22303)
Test: biochemical
Conditions: mean ± SD of three parallel measurements; phosphate buffer pH 7.7, 25 °C; read-out: IC50 (µM), acetylcholinesterase inhibitory activity
Description: The assay was carried out in a 96-well microtiter plate reader. […] The mixture was incubated for 5 min at 25 °C. […] Percent inhibition was calculated through the following formula: (control absorbance–sample absorbance)/control absorbance × 100. The IC50 values were the means ± SD of three determinations.

AChE, sequence (P22303 32-614): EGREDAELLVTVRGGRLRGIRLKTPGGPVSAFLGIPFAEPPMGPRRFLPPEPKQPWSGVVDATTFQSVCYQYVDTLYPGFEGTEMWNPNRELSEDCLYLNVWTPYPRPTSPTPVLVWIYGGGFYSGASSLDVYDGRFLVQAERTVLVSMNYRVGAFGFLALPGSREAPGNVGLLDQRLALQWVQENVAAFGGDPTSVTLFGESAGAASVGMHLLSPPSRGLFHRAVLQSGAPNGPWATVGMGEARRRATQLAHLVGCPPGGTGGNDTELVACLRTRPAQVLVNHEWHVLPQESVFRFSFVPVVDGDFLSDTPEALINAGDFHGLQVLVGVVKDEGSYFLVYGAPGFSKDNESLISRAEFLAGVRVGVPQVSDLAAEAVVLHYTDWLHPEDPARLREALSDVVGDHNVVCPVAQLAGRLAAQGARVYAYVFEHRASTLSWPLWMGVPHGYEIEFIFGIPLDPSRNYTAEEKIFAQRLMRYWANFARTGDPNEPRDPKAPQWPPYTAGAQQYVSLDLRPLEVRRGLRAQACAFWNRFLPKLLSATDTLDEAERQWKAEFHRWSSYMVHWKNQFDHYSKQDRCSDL

Row | SMILES | IC50
1 | CC1=CC(=O)OCC1 [Compound 6, 4-methyl-5,6-dihydropyren-2-one] | > 100 µM
2 | C[C@@H](O)Cc1cc2cc(O)cc(O)c2c(=O)o1 [Compound 11, de-O-methyldiaporthin] | 21.2 ± 1.53 µM
3 | C[C@@H]1Cc2cc(O)cc(O)c2C(=O)O1 [Compound 8, (R)-6-hydroxymellein] | > 100 µM
4 | C[C@@H]1C=C(C[C@@H](O)[C@H](C)O)C(=O)O1 [Compound 4] | 6.26 ± 0.15 µM
5 | CC(O)C(O)c1cc2cc(O)cc(O)c2c(=O)o1 (stereo not drawn) [Compound 9, 6,8-dihydroxy-3-(1′R, 2′R-dihydroxypropyl)-isocoumarin] | > 100 µM
6 | C/C(=C\C(=O)O)CCO [Compound 5, E-Δ^2-anhydromevalonic acid] | > 100 µM
7 | COc1cc(O)cc2cc(C)oc(=O)c12 [Compound 10, 6-hydroxy-8-methoxy-3-methylisocoumarin] | > 100 µM
8 | COC(=O)CC1=CC(C)OC1=O (centres unmarked) [Compound 3, methyl-2-(5-methyl-2-oxo-2,5-dihydrofuran-3-yl)-acetate] | > 100 µM
9 | CC1C=C(CO)C(=O)O1 (centres unmarked) [Compound 1, 3-(hydroxymethyl)-5-methylfuran-2(5H)-one] | > 100 µM
10 | CC1C=C(CC(=O)O)C(=O)O1 (centres unmarked) [Compound 2, 2-(5-methyl-2-oxo-2,5-dihydrofuran-3-yl)-acetic acid] | > 100 µM
11 | Cc1cc(C(=O)O)cc(C(C)O)n1 (centres unmarked) [Compound 7, 2-(1-hydroxyethyl)-6-methylisonicotinic acid] | > 100 µM
